Experimental data published in the supplement of paper PMC10307832.

What was measured:
Assay in all cases: relative viability (nuclei count vs DMSO), 5 days (fraction); higher = more cells survive
201T = tested on: 201T
How it was run: (§1)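 Medians of duplicate plates are given as relative viability. That measure is the nuclei count in treated wells divided by the count in vehicle wells. Counts were taken on 4× images of lung cancer cell lines in 1536-well plates, 5 days after pin-tool dosing the day after seeding with one drug alone or a fixed anchor-drug dose plus five library-drug doses (not always all listed) in √10 steps.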

A-427 = tested on: A-427
How it was run: as §1

COR-L 105 = tested on: COR-L 105
How it was run: as §1

COR-L23 = tested on: COR-L23
How it was run: as §1

EKVX = tested on: EKVX
How it was run: as §1

HARA = tested on: HARA
How it was run: as §1

HCC-15 = tested on: HCC-15
How it was run: as §1

HCC-44 = tested on: HCC-44
How it was run: as §1

HCC-827 = tested on: HCC-827
How it was run: as §1

LCLC-103H = tested on: LCLC-103H
How it was run: as §1

LK-2 = tested on: LK-2
How it was run: as §1

NCI-H1437 = tested on: NCI-H1437
How it was run: as §1

NCI-H1666 = tested on: NCI-H1666
How it was run: as §1

NCI-H1792 = tested on: NCI-H1792
How it was run: as §1

NCI-H1975 = tested on: NCI-H1975
How it was run: as §1

NCI-H23 = tested on: NCI-H23
How it was run: as §1

NCI-H441 = tested on: NCI-H441
How it was run: as §1

NCI-H520 = tested on: NCI-H520
How it was run: as §1

NCI-H596 = tested on: NCI-H596
How it was run: as §1

NCI-H650 = tested on: NCI-H650
How it was run: as §1

NCI-H838 = tested on: NCI-H838
How it was run: as §1

SK-MES-1 = tested on: SK-MES-1
How it was run: as §1

Question: Which results are given for COc1cc(N2CCC(C(N)=O)CC2)ccc1Nc1nc(N)c(Cl)c(Nc2ccccc2S(=O)(=O)C(C)C)n1 [HG-5-88-01] + C[C@@H](Oc1cc(-c2cnn(C3CCNCC3)c2)cnc1N)c1c(Cl)ccc(F)c1Cl [Crizotinib] (partner 1 µM)?
Answer: relative viability (201T; first compound 0.04 µM): 1; relative viability (201T; first compound 0.1265 µM): 0.846; relative viability (201T; first compound 0.4 µM): 1.03; relative viability (201T; first compound 1.265 µM): 0.986; relative viability (201T; first compound 4 µM): 1.11; relative viability (A-427; first compound 0.04 µM): 0.93; relative viability (A-427; first compound 0.1265 µM): 0.952; relative viability (A-427; first compound 0.4 µM): 0.951; relative viability (A-427; first compound 1.265 µM): 0.843; relative viability (A-427; first compound 4 µM): 0.791; relative viability (COR-L 105; first compound 0.04 µM): 0.855; relative viability (COR-L 105; first compound 0.1265 µM): 0.728; relative viability (COR-L 105; first compound 0.4 µM): 0.519; relative viability (COR-L 105; first compound 1.265 µM): 0.346; relative viability (COR-L 105; first compound 4 µM): 0.366; relative viability (COR-L23; first compound 0.04 µM): 0.651; relative viability (COR-L23; first compound 0.1265 µM): 0.588; relative viability (COR-L23; first compound 0.4 µM): 0.645; relative viability (COR-L23; first compound 1.265 µM): 0.584; relative viability (COR-L23; first compound 4 µM): 0.389; relative viability (EKVX; first compound 0.04 µM): 0.989; relative viability (EKVX; first compound 0.1265 µM): 0.93; relative viability (EKVX; first compound 0.4 µM): 0.892; relative viability (EKVX; first compound 4 µM): 0.843; relative viability (HARA; first compound 0.04 µM): 1.09; relative viability (HARA; first compound 0.1265 µM): 0.891; relative viability (HARA; first compound 0.4 µM): 1.08; relative viability (HARA; first compound 1.265 µM): 1.08; relative viability (HARA; first compound 4 µM): 0.695; relative viability (HCC-15; first compound 0.04 µM): 0.898; relative viability (HCC-15; first compound 0.1265 µM): 0.775; relative viability (HCC-15; first compound 0.4 µM): 0.779; relative viability (HCC-15; first compound 1.265 µM): 0.801; relative viability (HCC-15; first compound 4 µM): 0.77; relative viability (HCC-44; first compound 0.04 µM): 0.777; relative viability (HCC-44; first compound 0.1265 µM): 0.791; relative viability (HCC-44; first compound 0.4 µM): 0.797; relative viability (HCC-44; first compound 1.265 µM): 0.611; relative viability (HCC-44; first compound 4 µM): 0.489; relative viability (HCC-827; first compound 0.04 µM): 0.946; relative viability (HCC-827; first compound 0.1265 µM): 0.917; relative viability (HCC-827; first compound 0.4 µM): 0.94; relative viability (HCC-827; first compound 1.265 µM): 0.831; relative viability (HCC-827; first compound 4 µM): 0.392; relative viability (LCLC-103H; first compound 0.04 µM): 0.987; relative viability (LCLC-103H; first compound 0.1265 µM): 0.955; relative viability (LCLC-103H; first compound 0.4 µM): 0.95; relative viability (LCLC-103H; first compound 1.265 µM): 0.923; relative viability (LCLC-103H; first compound 4 µM): 0.985; relative viability (LK-2; first compound 0.04 µM): 0.24; relative viability (LK-2; first compound 0.1265 µM): 0.227; relative viability (LK-2; first compound 0.4 µM): 0.234; relative viability (LK-2; first compound 1.265 µM): 0.249; relative viability (LK-2; first compound 4 µM): 0.21; relative viability (NCI-H1437; first compound 0.04 µM): 0.896; relative viability (NCI-H1437; first compound 0.1265 µM): 0.927; relative viability (NCI-H1437; first compound 0.4 µM): 0.899; relative viability (NCI-H1437; first compound 1.265 µM): 0.822; relative viability (NCI-H1437; first compound 4 µM): 1.03; relative viability (NCI-H1666; first compound 0.04 µM): 1.01; relative viability (NCI-H1666; first compound 0.1265 µM): 1.1; relative viability (NCI-H1666; first compound 0.4 µM): 0.941; relative viability (NCI-H1666; first compound 1.265 µM): 0.794; relative viability (NCI-H1666; first compound 4 µM): 0.594; relative viability (NCI-H1792; first compound 0.04 µM): 1.11; relative viability (NCI-H1792; first compound 0.1265 µM): 0.968; relative viability (NCI-H1792; first compound 0.4 µM): 0.869; relative viability (NCI-H1792; first compound 1.265 µM): 0.947; relative viability (NCI-H1792; first compound 4 µM): 0.978; relative viability (NCI-H1975; first compound 0.04 µM): 1.03; relative viability (NCI-H1975; first compound 0.1265 µM): 1.03; relative viability (NCI-H1975; first compound 0.4 µM): 0.821; relative viability (NCI-H1975; first compound 1.265 µM): 0.794; relative viability (NCI-H1975; first compound 4 µM): 0.334; relative viability (NCI-H23; first compound 0.04 µM): 0.542; relative viability (NCI-H23; first compound 0.1265 µM): 0.43; relative viability (NCI-H23; first compound 0.4 µM): 0.481; relative viability (NCI-H23; first compound 1.265 µM): 0.471; relative viability (NCI-H23; first compound 4 µM): 0.26; relative viability (NCI-H441; first compound 0.04 µM): 0.655; relative viability (NCI-H441; first compound 0.1265 µM): 0.764; relative viability (NCI-H441; first compound 0.4 µM): 0.554; relative viability (NCI-H441; first compound 1.265 µM): 0.648; relative viability (NCI-H441; first compound 4 µM): 0.431; relative viability (NCI-H520; first compound 0.04 µM): 0.907; relative viability (NCI-H520; first compound 0.1265 µM): 0.704; relative viability (NCI-H520; first compound 0.4 µM): 0.711; relative viability (NCI-H520; first compound 1.265 µM): 0.762; relative viability (NCI-H520; first compound 4 µM): 0.663; relative viability (NCI-H596; first compound 0.04 µM): 0.949; relative viability (NCI-H596; first compound 0.1265 µM): 1.04; relative viability (NCI-H596; first compound 0.4 µM): 1.02; relative viability (NCI-H596; first compound 1.265 µM): 0.936; relative viability (NCI-H596; first compound 4 µM): 0.734; relative viability (NCI-H650; first compound 0.04 µM): 0.812; relative viability (NCI-H650; first compound 0.1265 µM): 0.739; relative viability (NCI-H650; first compound 0.4 µM): 0.579; relative viability (NCI-H650; first compound 1.265 µM): 0.519; relative viability (NCI-H650; first compound 4 µM): 0.398; relative viability (NCI-H838; first compound 0.04 µM): 0.799; relative viability (NCI-H838; first compound 0.1265 µM): 0.868; relative viability (NCI-H838; first compound 0.4 µM): 0.641; relative viability (NCI-H838; first compound 1.265 µM): 0.571; relative viability (NCI-H838; first compound 4 µM): 0.596; relative viability (SK-MES-1; first compound 0.04 µM): 0.96; relative viability (SK-MES-1; first compound 0.1265 µM): 0.988; relative viability (SK-MES-1; first compound 0.4 µM): 1.01; relative viability (SK-MES-1; first compound 1.265 µM): 0.978; relative viability (SK-MES-1; first compound 4 µM): 0.923
